ChEMBL document CHEMBL3885861, “Open TG-GATES”

Species on record: Rattus norvegicus
Assay: Open TG-GATES - Regimen: Single
Assay type: toxicity, organism-based, Sprague-Dawley
Design: regimen Single, gender Male, age 6 weeks
Settings: in vivo, po, 2000 mg/kg, route gavage, dose level High; for APTT / Bas / Eos / Fbg / Hb / Ht / Lym / MCH / MCHC / MCV / Mono / Neu / PT / Plat / RBC / Ret / WBC: tissue Blood; for KIDNEY_L / KIDNEY_R / KIDNEY_TOTAL: tissue Kidney; for LIVER: tissue Liver; for A/G / ALP / ALT / AST / BUN / CRE / Ca / Cl / DBIL / GLC / IP / K / LDH / Na / PL / RALB / TBIL / TC / TG / TP / gamma-GTP: tissue Plasma

Compound `CC(=O)[C@@]1(O)CC[C@H]2[C@@H]3C=C(Cl)C4=CC(=O)CC[C@]4(C)[C@H]3CC[C@@]21C` [CHLORMADINONE] has a TERMINAL_BW (3 h) of 222.1 g, an APTT (3 h) of 22.6 s and a Bas (3 h) of 0%. For the same compound, the Eos (3 h) was 1%, the Fbg (3 h) was 306 mg/dL and the Hb (3 h) was 12.8 g/dL. The Ht (3 h) was 39.5%, the Lym (3 h) was 74.8% and the MCH (3 h) was 20 pg. For the same compound, the MCHC (3 h) was 32.4%, the MCV (3 h) was 61.8 fL and the Mono (3 h) was 2%. For the same compound, the Neu (3 h) was 21.6%, the PT (3 h) was 15.2 s and the Plat (3 h) was 107.8 x10_4/uL. The RBC (3 h) was 639.8 x10_4/ul, the Ret (3 h) was 7.8% and the WBC (3 h) was 55.6 x10_2/uL. It also gave a KIDNEY_L (3 h) of 0.9 g, a KIDNEY_R (3 h) of 1 g and a KIDNEY_TOTAL (3 h) of 1.9 g. The LIVER (3 h) was 10.1 g, the A/G (3 h) was 1.2 and the ALP (3 h) was 1401.2 IU/L. The ALT (3 h) was 45.6 IU/L, the AST (3 h) was 81 IU/L and the BUN (3 h) was 13.8 mg/dL. For the same compound, the CRE (3 h) was 0.2 mg/dL, the Ca (3 h) was 10.9 mg/dL and the Cl (3 h) was 105.2 meq/L. For the same compound, the DBIL (3 h) was 0.004 mg/dL, the GLC (3 h) was 172.2 mg/dL and the IP (3 h) was 8.9 mg/dL. For the same compound, the K (3 h) was 4.2 meq/L, the LDH (3 h) was 143.6 IU/L and the Na (3 h) was 141.2 meq/L. It also gave a PL (3 h) of 138 mg/dL, an RALB (3 h) of 3 g/dL and a TBIL (3 h) of 0.032 mg/dL. The TC (3 h) was 73.6 mg/dL, the TG (3 h) was 50.8 mg/dL and the TP (3 h) was 5.5 g/dL. The gamma-GTP (3 h) was 1.4 IU/L, the TERMINAL_BW (6 h) was 216.3 g and the APTT (6 h) was 23.1 s. The Bas (6 h) was 0%, the Eos (6 h) was 0.6% and the Fbg (6 h) was 313.4 mg/dL. The Hb (6 h) was 13.5 g/dL, the Ht (6 h) was 41.5% and the Lym (6 h) was 74%. It also gave an MCH (6 h) of 20.8 pg, an MCHC (6 h) of 32.6% and an MCV (6 h) of 63.7 fL. The Mono (6 h) was 1.6%, the Neu (6 h) was 23.4% and the PT (6 h) was 15.1 s. For the same compound, the Plat (6 h) was 124.8 x10_4/uL, the RBC (6 h) was 651.8 x10_4/ul and the Ret (6 h) was 7.9%. For the same compound, the WBC (6 h) was 64 x10_2/uL, the KIDNEY_L (6 h) was 1 g and the KIDNEY_R (6 h) was 1 g. For the same compound, the KIDNEY_TOTAL (6 h) was 2 g, the LIVER (6 h) was 10.3 g and the A/G (6 h) was 1.2. For the same compound, the ALP (6 h) was 1302 IU/L, the ALT (6 h) was 40.4 IU/L and the AST (6 h) was 72.8 IU/L. The BUN (6 h) was 13 mg/dL, the CRE (6 h) was 0.1 mg/dL and the Ca (6 h) was 10.8 mg/dL. For the same compound, the Cl (6 h) was 106.2 meq/L, the DBIL (6 h) was 0.004 mg/dL and the GLC (6 h) was 177.4 mg/dL. The IP (6 h) was 9.6 mg/dL, the K (6 h) was 4.8 meq/L and the LDH (6 h) was 157 IU/L. It also gave a Na (6 h) of 140 meq/L, a PL (6 h) of 138 mg/dL and an RALB (6 h) of 3.2 g/dL. The TBIL (6 h) was 0.034 mg/dL, the TC (6 h) was 77.2 mg/dL and the TG (6 h) was 39.8 mg/dL. The TP (6 h) was 5.7 g/dL, the gamma-GTP (6 h) was 1.6 IU/L and the TERMINAL_BW (9 h) was 215.8 g. For the same compound, the APTT (9 h) was 24.7 s, the Bas (9 h) was 0% and the Eos (9 h) was 0%. It also gave a Fbg (9 h) of 319.6 mg/dL, a Hb (9 h) of 13 g/dL and a Ht (9 h) of 40.7%. It also gave a Lym (9 h) of 71.2%, an MCH (9 h) of 20.2 pg and an MCHC (9 h) of 31.9%. For the same compound, the MCV (9 h) was 63.4 fL, the Mono (9 h) was 1% and the Neu (9 h) was 27.2%. For the same compound, the PT (9 h) was 15.7 s, the Plat (9 h) was 119.5 x10_4/uL and the RBC (9 h) was 642 x10_4/ul. For the same compound, the Ret (9 h) was 7.9%, the WBC (9 h) was 51.3 x10_2/uL and the KIDNEY_L (9 h) was 0.9 g. For the same compound, the KIDNEY_R (9 h) was 1 g, the KIDNEY_TOTAL (9 h) was 1.9 g and the LIVER (9 h) was 9.8 g. It also gave an A/G (9 h) of 1.3, an ALP (9 h) of 1584 IU/L and an ALT (9 h) of 39.4 IU/L. The AST (9 h) was 78 IU/L, the BUN (9 h) was 12.8 mg/dL and the CRE (9 h) was 0.1 mg/dL. It also gave a Ca (9 h) of 10.6 mg/dL, a Cl (9 h) of 106.6 meq/L and a DBIL (9 h) of 0 mg/dL. For the same compound, the GLC (9 h) was 178 mg/dL, the IP (9 h) was 9.4 mg/dL and the K (9 h) was 4.5 meq/L. For the same compound, the LDH (9 h) was 142 IU/L, the Na (9 h) was 141 meq/L and the PL (9 h) was 142.4 mg/dL. The RALB (9 h) was 3.2 g/dL, the TBIL (9 h) was 0.028 mg/dL and the TC (9 h) was 73 mg/dL. The TG (9 h) was 67.2 mg/dL, the TP (9 h) was 5.7 g/dL and the gamma-GTP (9 h) was 1.4 IU/L. The TERMINAL_BW (24 h) was 229.8 g, the APTT (24 h) was 25.3 s and the Bas (24 h) was 0%. It also gave an Eos (24 h) of 1%, a Fbg (24 h) of 341.6 mg/dL and a Hb (24 h) of 14 g/dL. The Ht (24 h) was 42.6%, the Lym (24 h) was 77.6% and the MCH (24 h) was 20.4 pg. The MCHC (24 h) was 32.8%, the MCV (24 h) was 62 fL and the Mono (24 h) was 2.6%. For the same compound, the Neu (24 h) was 17.8%, the PT (24 h) was 15.3 s and the Plat (24 h) was 106.3 x10_4/uL. For the same compound, the RBC (24 h) was 687 x10_4/ul, the Ret (24 h) was 7.3% and the WBC (24 h) was 130.3 x10_2/uL. The KIDNEY_L (24 h) was 1 g, the KIDNEY_R (24 h) was 1 g and the KIDNEY_TOTAL (24 h) was 2 g. For the same compound, the LIVER (24 h) was 11.8 g, the A/G (24 h) was 1.2 and the ALP (24 h) was 1835.4 IU/L. For the same compound, the ALT (24 h) was 51.2 IU/L, the AST (24 h) was 75 IU/L and the BUN (24 h) was 15.8 mg/dL. It also gave a CRE (24 h) of 0.2 mg/dL, a Ca (24 h) of 11.3 mg/dL and a Cl (24 h) of 105.4 meq/L. For the same compound, the DBIL (24 h) was 0 mg/dL, the GLC (24 h) was 192.4 mg/dL and the IP (24 h) was 7.8 mg/dL. The K (24 h) was 4.7 meq/L, the LDH (24 h) was 201 IU/L and the Na (24 h) was 140.6 meq/L. The PL (24 h) was 185.2 mg/dL, the RALB (24 h) was 3.2 g/dL and the TBIL (24 h) was 0.004 mg/dL. For the same compound, the TC (24 h) was 82 mg/dL, the TG (24 h) was 222 mg/dL and the TP (24 h) was 5.8 g/dL. For the same compound, the gamma-GTP (24 h) was 1.4 IU/L.
